Measured values: article PMC10893103, “Cyclodextrin-Enabled Enantioselective Complexation Study of Cathinone Analogs” (Molecules, 2024)

Test: Affinity capillary electrophoresis (ACE), pH 7.4
Settings: 30 mM phosphate buffer pH 7.4, 25 °C, 15 kV
How it was run: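 Mobility-shift ACE of cathinone analogues with cyclodextrins (0.25–20 mM in BGE) in 30 mM phosphate pH 7.4, 25 °C, fused-silica capillary, 15 kV, UV 215 nm, DMSO as EOF marker. Mobilities obtained by HVL peak fitting; complex stability constants corrected for viscosity and ionic strength.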

Substance	4-MEC–CD complex stability constant, Kstab2 (second migrating enantiomer) [M⁻¹]	4-MEC–CD complex stability constant, Kstab/Kstab1 (unresolved or first migrating enantiomer) [M⁻¹]	Flephedrone–CD complex stability constant, Kstab/Kstab1 (unresolved or first migrating enantiomer) [M⁻¹]	Mephedrone–CD complex stability constant, Kstab2 (second migrating enantiomer) [M⁻¹]	Mephedrone–CD complex stability constant, Kstab/Kstab1 (unresolved or first migrating enantiomer) [M⁻¹]	Flephedrone–CD complex stability constant, Kstab2 (second migrating enantiomer) [M⁻¹]	Butylone–CD complex stability constant, Kstab2 (second migrating enantiomer) [M⁻¹]	Butylone–CD complex stability constant, Kstab/Kstab1 (unresolved or first migrating enantiomer) [M⁻¹]	MDPV–CD complex stability constant, Kstab/Kstab1 (unresolved or first migrating enantiomer) [M⁻¹]
sulfobutyl-ether-β-CD [SBE-β-CD (DS~4)]	550 ± 40	560 ± 60	175 ± 25	325 ± 60	300 ± 60	–	–	–	–
sulfobutyl-ether-β-CD [SBE-β-CD (DS~6.5)]	660 ± 35	560 ± 35	200 ± 20	500 ± 40	500 ± 20	200 ± 12	–	–	–
sulfobutyl-ether-γ-CD [SBE-γ-CD]	–	< 10	100 ± 5	65 ± 12	70 ± 15	–	100 ± 15	95 ± 15	160 ± 20
sulfopropylated-β-CD [SP-β-CD (DS~2)]	–	440 ± 25	140 ± 12	–	390 ± 20	–	–	710 ± 45	–
sulfopropylated-β-CD [SP-β-CD (DS~4)]	–	620 ± 65	120 ± 12	450 ± 65	500 ± 65	–	–	–	–
sulfopropylated-γ-CD [SP-γ-CD]	–	70 ± 10	< 10	–	45 ± 4	–	–	70 ± 10	140 ± 20
